Columns and labels:
[1] = test system: cultured hepatocytes (HepG2); conditions: human, 100 μM
[2] = test system: TNF-α, IL-1β, IL-6; assay: Inflammation-related cytokine mRNA (PCR) in LPS-treated BV2 cells; type: cell-based; conditions: BV2 cells treated with LPS, FIGS. 4A-4C
Method: (§1) In order to investigate the molecular biological mechanism of the anti-inflammatory effect of the single components derived from the licorice extract, the following test was conducted. BV2 cells were treated with an inflammation inducer LPS, after which the extent of inhibition of the increase in proinflammatory cytokines, iNOS ([…]), COX2 (cyclooxygenase-2), etc. by three components (glycyrrhizin, liquiritin and liquiritigenin) was measured based on changes in mRNA using a PCR technique.

[3] = test system: HepG2 cells with hepatotoxicity induced by t-BHP; assay: Inhibition of t-BHP-induced hepatotoxicity in cultured hepatocytes; conditions: HepG2, FIG. 6
[4] = test system: NO production by LPS in BV2 cells; assay: Inhibition of NO production by LPS in BV2 cells; type: cell-based; conditions: BV2 cells, 10, 20 and 50 μM, after 24 hr, FIG. 2
Method: In order to evaluate the anti-inflammatory effects of single components derived from the licorice extract, BV2 cells were treated with glycyrrhizin, liquiritin and liquiritigenin at concentrations of 10, 20 and 50 μM, after which the inhibition of NO production by LPS (Lipopolysaccharide) was measured after 24 hr.

[5] = test system: iNOS, COX2; assay: iNOS and COX2 mRNA (PCR) in LPS-treated BV2 cells; type: cell-based; conditions: BV2 cells treated with LPS, FIGS. 3A-3C
Method: as §1

[6] = test system: cultured hepatocytes (HepG2); assay: Cell viability of HepG2 cells treated with single components or t-BHP; conditions: HepG2, t-BHP alone, FIG. 6

Structure (SMILES) | cell viability [1] | expression of inflammation-related cytokines (TNF-α, IL-1β, IL-6) [2] | inhibition of hepatotoxicity induced by t-BHP [3] | inhibition of NO production by LPS [4] | expression of iNOS and COX2 (mRNA) [5] | cell viability upon treatment with t-BHP [6]
CC1(C)[C@@H](O[C@H]2O[C@H](C(=O)O)[C@@H](O)[C@H](O)[C@H]2O[C@@H]2O[C@H](C(=O)O)[C@@H](O)[C@H](O)[C@H]2O)CC[C@]2(C)[C@H]3C(=O)C=C4[C@@H]5C[C@@](C)(C(=O)O)CC[C@]5(C)CC[C@@]4(C)[C@]3(C)CC[C@@H]12 [glycyrrhizin] | ≥ 95% | inhibited more strongly | hepatotoxicity inhibition effects increased with the treatment concentration thereof |  |  | 
O=C1C[C@@H](c2ccc(O)cc2)Oc2cc(O)ccc21 [liquiritigenin] |  |  | hepatotoxicity inhibition effects increased with the treatment concentration thereof | greatest efficacy | also exhibited reduction effects | 
O=C1C[C@@H](c2ccc(O[C@@H]3O[C@H](CO)[C@@H](O)[C@H](O)[C@H]3O)cc2)Oc2cc(O)ccc21 [liquiritin] | ≥ 95% |  | hepatotoxicity inhibition effects increased with the treatment concentration thereof |  | decreased the expression of iNOS and COX2 more strongly than glycyrrhizin | 
CC(C)(C)OO [t-BHP, t-butyl hydroperoxide] |  |  |  |  |  | about 30%

Reference: US11096979B2, “Pharmaceutical composition for preventing or treating liver diseases, containing licorice extract containing glycyrrhizin and liquiritin” (NOVAREX CO., LTD., priority 2016, dated 2021)
